System: T-47D spheroids with HUVEC/MSC, viability
Test: Anticancer human tumor T-47D cell line growth inhibition [PI3K];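 note: spheroids exposed to agents for seven days before reading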;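 for viability, T/C: percent of DMSO vehicle control luminescence so 100% = untreated growth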
Details: for viability, T/C: stronger effect = lower value
In short: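 Three cell types, namely tumor cells, endothelial cells and mesenchymal stem cells, formed each spheroid. Combinations with four PI3K inhibitors were screened at clinically achievable concentrations decreasing by half-log, and spheroid viability was recorded.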

[1] = curve of first compound, second compound 0.0316 µM
[2] = curve of first compound, second compound 0.1 µM
[3] = curve of first compound, second compound 0.316 µM
[4] = curve of first compound, second compound 1 µM
[5] = second compound 0.0316 µM, first compound 0.0316 µM
[6] = second compound 0.0316 µM, first compound 0.1 µM
[7] = second compound 0.0316 µM, first compound 0.316 µM
[8] = second compound 0.0316 µM, first compound 1 µM
[9] = second compound 0.0316 µM, first compound 3.16 µM
[10] = second compound 0.0316 µM, first compound 10 µM
[11] = second compound 0.1 µM, first compound 0.0316 µM
[12] = second compound 0.1 µM, first compound 0.1 µM
[13] = second compound 0.1 µM, first compound 0.316 µM
[14] = second compound 0.1 µM, first compound 1 µM
[15] = second compound 0.1 µM, first compound 3.16 µM
[16] = second compound 0.1 µM, first compound 10 µM
[17] = second compound 0.316 µM, first compound 0.0316 µM
[18] = second compound 0.316 µM, first compound 0.1 µM
[19] = second compound 0.316 µM, first compound 0.316 µM
[20] = second compound 0.316 µM, first compound 1 µM
[21] = second compound 0.316 µM, first compound 3.16 µM
[22] = second compound 0.316 µM, first compound 10 µM
[23] = second compound 1 µM, first compound 0.0316 µM
[24] = second compound 1 µM, first compound 0.1 µM
[25] = second compound 1 µM, first compound 0.316 µM
[26] = second compound 1 µM, first compound 1 µM
[27] = second compound 1 µM, first compound 3.16 µM
[28] = second compound 1 µM, first compound 10 µM

Molecule `Cn1ncc(Cl)c1-c1cc(C(=O)NC(CN)Cc2cccc(F)c2)sc1Cl` (stereo unspecified) + Cc1nc(NC(=O)N2CCCC2C(N)=O)sc1-c1ccnc(C(C)(C)C(F)(F)F)c1 has an IC50 [1] of over 10 µM, an IC50 [2] of over 10 µM and an IC50 [3] of over 10 µM. For the same molecule, the IC50 [4] was over 10 µM, the IC50 (curve of first compound, second compound 3.16 µM) was over 10 µM and the IC50 (curve of first compound, second compound 10 µM) was under 0.0316 µM. It also gave a viability, T/C [5] of 107%, a viability, T/C [6] of 88.1% and a viability, T/C [7] of 83.8%. The viability, T/C [8] was 64.8%, the viability, T/C [9] was 64.9% and the viability, T/C [10] was 63.3%. The viability, T/C [11] was 88.8%, the viability, T/C [12] was 93.2% and the viability, T/C [13] was 80.3%. It also gave a viability, T/C [14] of 60%, a viability, T/C [15] of 55.8% and a viability, T/C [16] of 65.3%. The viability, T/C [17] was 88.1%, the viability, T/C [18] was 69.8% and the viability, T/C [19] was 75%. The viability, T/C [20] was 57.8%, the viability, T/C [21] was 60.7% and the viability, T/C [22] was 66.8%. It also gave a viability, T/C [23] of 70%, a viability, T/C [24] of 75.9% and a viability, T/C [25] of 67.7%. The viability, T/C [26] was 53.9%, the viability, T/C [27] was 64.6% and the viability, T/C [28] was 65.3%. For the same molecule, the viability, T/C (second compound 3.16 µM, first compound 0.0316 µM) was 58.5%, the viability, T/C (second compound 3.16 µM, first compound 0.1 µM) was 59.4% and the viability, T/C (second compound 3.16 µM, first compound 0.316 µM) was 48.9%. The viability, T/C (second compound 3.16 µM, first compound 1 µM) was 49.7%, the viability, T/C (second compound 3.16 µM, first compound 3.16 µM) was 43.9% and the viability, T/C (second compound 3.16 µM, first compound 10 µM) was 61.8%. For the same molecule, the viability, T/C (second compound 10 µM, first compound 0.0316 µM) was 35.1%, the viability, T/C (second compound 10 µM, first compound 0.1 µM) was 30% and the viability, T/C (second compound 10 µM, first compound 0.316 µM) was 33.3%. It also gave a viability, T/C (second compound 10 µM, first compound 1 µM) of 32.1%, a viability, T/C (second compound 10 µM, first compound 3.16 µM) of 39.7% and a viability, T/C (second compound 10 µM, first compound 10 µM) of 50.5%.
Molecule `CC1(C)CCC(CN2CCN(c3ccc(C(=O)NS(=O)(=O)c4ccc(NCC5CCOCC5)c([N+](=O)[O-])c4)c(Oc4cnc5[nH]ccc5c4)c3)CC2)=C(c2ccc(Cl)cc2)C1` + CC(Nc1ccc2c(c1)OCCn1cc(N3C(=O)OCC3C(F)F)nc1-2)C(N)=O has an IC50 (curve of first compound, second compound 0.00316 µM) of over 10 µM, an IC50 (curve of first compound, second compound 0.01 µM) of over 10 µM and an IC50 [1] of over 10 µM. For the same molecule, the IC50 [2] was over 10 µM, the IC50 [3] was over 10 µM and the IC50 [4] was 4.16 µM. The viability, T/C (second compound 0.00316 µM, first compound 0.0316 µM) was 101%, the viability, T/C (second compound 0.00316 µM, first compound 0.1 µM) was 97.2% and the viability, T/C (second compound 0.00316 µM, first compound 0.316 µM) was 98.9%. The viability, T/C (second compound 0.00316 µM, first compound 1 µM) was 89.8%, the viability, T/C (second compound 0.00316 µM, first compound 3.16 µM) was 76.3% and the viability, T/C (second compound 0.00316 µM, first compound 10 µM) was 78.9%. For the same molecule, the viability, T/C (second compound 0.01 µM, first compound 0.0316 µM) was 90.1%, the viability, T/C (second compound 0.01 µM, first compound 0.1 µM) was 81.5% and the viability, T/C (second compound 0.01 µM, first compound 0.316 µM) was 93.7%. For the same molecule, the viability, T/C (second compound 0.01 µM, first compound 1 µM) was 91.6%, the viability, T/C (second compound 0.01 µM, first compound 3.16 µM) was 79.5% and the viability, T/C (second compound 0.01 µM, first compound 10 µM) was 69.7%. For the same molecule, the viability, T/C [5] was 87.3%, the viability, T/C [6] was 94% and the viability, T/C [7] was 103%. For the same molecule, the viability, T/C [8] was 75.5%, the viability, T/C [9] was 87% and the viability, T/C [10] was 65.5%. It also gave a viability, T/C [11] of 77.6%, a viability, T/C [12] of 76.3% and a viability, T/C [13] of 89.6%. It also gave a viability, T/C [14] of 87.5%, a viability, T/C [15] of 89.5% and a viability, T/C [16] of 53.4%. It also gave a viability, T/C [17] of 65.5%, a viability, T/C [18] of 79.2% and a viability, T/C [19] of 69.7%. For the same molecule, the viability, T/C [20] was 61.4%, the viability, T/C [21] was 72.9% and the viability, T/C [22] was 52.1%. The viability, T/C [23] was 52.9%, the viability, T/C [24] was 54.5% and the viability, T/C [25] was 61%. For the same molecule, the viability, T/C [26] was 57.2%, the viability, T/C [27] was 53% and the viability, T/C [28] was 38.3%.
`CC(C)NCC(C(=O)N1CCN(c2ncnc3c2C(C)CC3O)CC1)c1ccc(Cl)cc1` (stereo unspecified) was tested, and the viability, T/C (compound 0.0316 µM) was 99.4% [middle of 4 runs], the viability, T/C (compound 0.1 µM) was 83.5% [middle of 4 runs] and the viability, T/C (compound 0.316 µM) was 84.9% [middle of 4 runs]. For the same molecule, the viability, T/C (compound 1 µM) was 79.4% [middle of 4 runs], the viability, T/C (compound 3.16 µM) was 64.1% [middle of 4 runs] and the viability, T/C (compound 10 µM) was 52.3% [middle of 4 runs]. It also gave an IC50 (curve of compound) of over 10 µM.

Reference: PubChem BioAssay AID1963959 (Molecular Pharmacology Branch, DTP, NCI, 2024)
